Laboratory results reported in patent US10570080B2, “Perfume ketones” (Givaudan, S.A., priority 2015, dated 2020).
Like-named read-outs stand apart in the source and are kept apart here.

Assays:
[1] = target: T1, test peptide Cor1C-420 (Ac-NKKCDLF) (Homo sapiens, UniProt Q9ULV4, I423F); assay: Peptide reactivity assay for skin sensitization (similar to DPRA), LC-MS; assay type: biochemical; conditions: 37° C., 1 mM test chemical, 0.1 mM peptide
T1 construct: purchased Genscript Inc., Piscataway, N.J., USA
Method: A second method to determine allergenic potential of chemicals is the DPRA direct peptide assay (OECD TG 442c). It is based on the fact that allergenic chemicals must react with a peptide/protein in order to be immunogenic.
A peptide reactivity assay (A. Natsch, H. Gfeller, Toxicol. Sci 2008, 106, 464-478) was conducted similarly to the DPRA assay: The test chemicals were dissolved to a final concentration of 4 mM in acetonitrile and 250 μl of this solution were added to 2 ml HPLC vials. The test peptide Cor1C-420 with the sequence Ac-NKKCDLF (Genscript Inc., Piscataway, N.J., USA), was dissolved at 0.133 mM in 20 mM phosphate buffer at pH 7.5, and 750 μl of this solution were added to each test vial (final concentrations: 1 mM of test chemical and 0.1 mM of peptide in 25% acetonitrile; ratio 1:10 as in the DPRA assay). The samples were incubated for 1-24 h at 37° C. and at regular intervals they were analysed by LC-MS analysis on a VELOS PRO Mass spectrometer (Thermo […], San Jose, Calif., U.S.A.) operated in the ESl(+) mode. The temperature of the capillary was kept at 275° C. Mass spectra were recorded from 200-2000 amu. […]
Two endpoints are measured with this assay: • a) Depletion of the parent peptide. The mass of the protonated parent peptide is measured and the corresponding peak integrated (% depletion; FIG. 2). […]

[2] = test system: Luciferase gene under the control of the ARE-element of the gene AKR1C2 (KeratinoSens cell line); assay: KeratinoSens assay for skin sensitization: luciferase gene induction; conditions: for Concentration for 1.5-fold gene induction (EC 1.5 in μM): 48 h, n.i. = no induction above threshold of 1.5; for Imax (fold maximal gene induction): 48 h incubation, 0.98 to 2000 μM, vs DMSO controls
Method: (§1) Sensitization is measured by the commercially-available and universally-accepted KeratinoSens™ test, which compares the potential skin sensitization risk of chemicals.
(§2) KeratinoSens cells were grown for 24 h in 96-well plates. The medium was then replaced with medium containing the test chemical and the solvent dimethylsulfoxide (DMSO) at a final level of 1%. Each compound was tested at 12 binary dilutions in the range from 0.98 to 2000 μM. Cells were incubated for 48 h with the test agents, and then luciferase activity and cytotoxicity were determined. This full procedure was repeated three times for each chemical. For each chemical in each repetition and at each concentration, the gene induction compared to DMSO controls and the wells with statistically significant induction over the threshold of 1.5 (i.e. 50% enhanced gene activity) were determined. Furthermore, the maximal fold-induction (Imax) and the EC1.5 value (concentration in μM for induction above the threshold) were calculated.
(§3) Compounds were tested using the commercial KeratinoSens™ assay for skin sensitization.

[3] = test system: KeratinoSens cells; assay: KeratinoSens assay: cytotoxicity / cellular viability; conditions: 48 h
Method: KeratinoSens cells were grown for 24 h in 96-well plates. The medium was then replaced with medium containing the test chemical and the solvent dimethylsulfoxide (DMSO) at a final level of 1%. Each compound was tested at 12 binary dilutions in the range from 0.98 to 2000 μM. Cells were incubated for 48 h with the test agents, and then luciferase activity and cytotoxicity were determined. This full procedure was repeated three times for each chemical.
as §3

[4] = test system: Luciferase gene under the control of the ARE-element of the gene AKR1C2 (KeratinoSens cell line)
Method: as §1, §2, §3

| concentration at which the luciferase gene is clearly induced [4] [µM] | maximal gene induction over control [4] [fold] | SMILES | levels of peptide adducts, fold lower as compared to Damascone delta ([1]; after 1 h) [fold] | peptide depletion ([1]; over the 24 h experiment) | sensitization rating by the KeratinoSens assay [2] | induction of luciferase activity above the 1.5-fold threshold ([2]; KeratinoSens) | Concentration for 1.5-fold gene induction (EC 1.5 in μM) ([2]; KeratinoSens) | Imax (fold maximal gene induction) ([2]; KeratinoSens) [fold] | Concentration for 50% Cytotoxicity [3] [µM] | sensitization rating by the KeratinoSens assay [4] |
| --- | --- | --- | --- | --- | --- | --- | --- | --- | --- | --- |
|  |  | C/C=C(\C)C(=O)[C@@H]1[C@@H](C)C=CCC1(C)C (relative stereo) [Example 1, (2E,1′R*,2′S*)-2-Methyl-(2′,6′,6′-trimethylcyclohex-3′-en-1′-yl)but-2-en-1-one] | 3200 | no significant peptide depletion | non-sensitizing | did not induce luciferase activity above the 1.5-fold threshold | n.i. | 1.09 | 90.3 |  |
| 4 | 8.7 | C/C=C/C(=O)C1C(C)C=CCC1(C)C (stereo not shown) [Damascone delta™, (2E)-1-(2′,6′,6′-trimethylcyclohex-3′-en-1′-yl)but-2-en-1-one] |  |  |  |  |  |  |  | significantly sensitizing compound |
|  |  | CC=C(C)C(=O)C1CCC=CC1C (stereo not drawn) [Example 8, (2E,1′R*,2′R*)-2-Methyl-1-(2′-methylcyclohex-3′-en-1′-yl)but-2-en-1-one] |  |  |  |  | n.i. | 1.35 | 316.4 |  |
